In assay [1] the target is T1, ΔF508-CFTR (Homo sapiens, UniProt P13569, DEL508-508).
T1 construct: host or cells: CFBE41o-, doxycycline-inducible
In words: CFTR cell surface levels using HRP-tagged ΔF508-CFTR expressing CFBE cells, in the presence of a co-corrector. The assay is classed as cell-based. The settings on record: HRP-tagged ΔF508-CFTR CFBE cells, in the presence of 3 μM co-corrector; for EC50: read-out: EC50. The procedure, abridged:
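Chemiluminescent read-out of surface HRP (15 min, dark) after PBS washes. Activity is normalized as 100×(sample−DMSO)/(3 μM co-corrector alone−DMSO).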

Assay [2] concerns the target T1, ΔF508-CFTR. Briefly: CFTR cell surface levels using HRP-tagged ΔF508-CFTR expressing CFBE cells, intrinsic corrector capacity. In kind it is cell-based. Also noted: % Activation: concentration or dose not given beside the values. The settings on record: HRP-tagged ΔF508-CFTR expressing CFBE41o- cells, compound alone (intrinsic corrector capacity), 20 hours at 33° C.; for EC50: read-out: EC50. The source says: Measuring CFTR Cell Surface Levels Using HRP-Tagged ΔF508-CFTR Expressing CFBE Cells
The HRP-tagged ΔF508-CFTR cell assay measures the expression of CFTR-ΔF508 at the plasma membrane. CFTR-ΔF508 has a folding defect leading to absence of protein at the plasma membrane. This assay is used to evaluate the capacity of compounds to increase the expression of CFTR-ΔF508 at the plasma membrane. The CFTR-ΔF508 is tagged with HRP (horse radish peroxidase enzyme) within the ECL4 (Extracellular loop 4) of CFTR (Phuan, P.-W. et al. Synergy-based small-molecule screen using a human lung epithelial cell line yields ΔF508-CFTR correctors that augment VX-809 maximal efficacy. Mol. Pharmacol. 86, 42-51 (2014)). When HRP-tagged ΔF508-CFTR is present at the plasma membrane, the HRP enzyme activity can be measured. The amount of CFTR-ΔF508 that can be rescued to the plasma membrane is correlated with the amount of functional enzyme that can be measured.
There are several ways to measure the capacity of compounds to rescue CFTR-ΔF508 to the plasma membrane; either compounds are evaluated on their own and the impact on plasma membrane levels is measured or compounds are evaluated in combination with a co-corrector, i.e. a compound that rescues CFTR-ΔF508 to the plasma membrane but rescue can be enhanced by addition of compounds due to a complementary mode of action.
Activity of Compounds for their Intrinsic Corrector Capacity:
For this purpose doxycycline-inducible ΔF508-CFTR-HRP expressing CFBE4lo− cells (obtained from Gergely Lukacs, McGill University) were maintained in MEM (Gibco; 31095) supplemented with 10% fetal bovine serum (Hyclone; SV30160.03) under puromycin (3 μg/mL) and G418 selection (0.2 mg/mL). For compound testing, cells were seeded at 4000 cells/well in white 384-well plates (Greiner; 781080) in 50 μL medium containing 0.5 μg/mL doxycycline and incubated for 68 hours at 37° C., 5% CO2. On day four, […] compounds diluted in PBS were added to the plates at a final DMSO concentration of 0.1%. All compound plates contained negative controls (DMSO) and positive controls ([…] corrector, 3-[(2R,4R)-4-({[1-(2,2-difluoro-1,3-benzodioxol-5-yl)cyclopropyl]carbonyl}amino)-7-methoxy-3,4-dihydro-2H-chromen-2-yl]benzoic acid). Cell plates were incubated at 33° C., 5% CO2 for 20 hours. On day five, the cells were washed five times with phosphate-buffered saline, and HRP activity was assayed by the addition of 50 μL/well of HRP substrate (SuperSignal™ West Pico Chemiluminescent Substrate, Thermo Scientific; 34080). After incubation for 15 minutes in the dark, chemiluminescence was measured using a plate reader (EnVision®, Perkin Elmer). Raw data were normalized to percentage activity values using the equation: 100×(Sample−Negative control)/(Positive control−Negative Control).

T1 sequence (P13569 with tags, fused parts or gaps DEL508-508): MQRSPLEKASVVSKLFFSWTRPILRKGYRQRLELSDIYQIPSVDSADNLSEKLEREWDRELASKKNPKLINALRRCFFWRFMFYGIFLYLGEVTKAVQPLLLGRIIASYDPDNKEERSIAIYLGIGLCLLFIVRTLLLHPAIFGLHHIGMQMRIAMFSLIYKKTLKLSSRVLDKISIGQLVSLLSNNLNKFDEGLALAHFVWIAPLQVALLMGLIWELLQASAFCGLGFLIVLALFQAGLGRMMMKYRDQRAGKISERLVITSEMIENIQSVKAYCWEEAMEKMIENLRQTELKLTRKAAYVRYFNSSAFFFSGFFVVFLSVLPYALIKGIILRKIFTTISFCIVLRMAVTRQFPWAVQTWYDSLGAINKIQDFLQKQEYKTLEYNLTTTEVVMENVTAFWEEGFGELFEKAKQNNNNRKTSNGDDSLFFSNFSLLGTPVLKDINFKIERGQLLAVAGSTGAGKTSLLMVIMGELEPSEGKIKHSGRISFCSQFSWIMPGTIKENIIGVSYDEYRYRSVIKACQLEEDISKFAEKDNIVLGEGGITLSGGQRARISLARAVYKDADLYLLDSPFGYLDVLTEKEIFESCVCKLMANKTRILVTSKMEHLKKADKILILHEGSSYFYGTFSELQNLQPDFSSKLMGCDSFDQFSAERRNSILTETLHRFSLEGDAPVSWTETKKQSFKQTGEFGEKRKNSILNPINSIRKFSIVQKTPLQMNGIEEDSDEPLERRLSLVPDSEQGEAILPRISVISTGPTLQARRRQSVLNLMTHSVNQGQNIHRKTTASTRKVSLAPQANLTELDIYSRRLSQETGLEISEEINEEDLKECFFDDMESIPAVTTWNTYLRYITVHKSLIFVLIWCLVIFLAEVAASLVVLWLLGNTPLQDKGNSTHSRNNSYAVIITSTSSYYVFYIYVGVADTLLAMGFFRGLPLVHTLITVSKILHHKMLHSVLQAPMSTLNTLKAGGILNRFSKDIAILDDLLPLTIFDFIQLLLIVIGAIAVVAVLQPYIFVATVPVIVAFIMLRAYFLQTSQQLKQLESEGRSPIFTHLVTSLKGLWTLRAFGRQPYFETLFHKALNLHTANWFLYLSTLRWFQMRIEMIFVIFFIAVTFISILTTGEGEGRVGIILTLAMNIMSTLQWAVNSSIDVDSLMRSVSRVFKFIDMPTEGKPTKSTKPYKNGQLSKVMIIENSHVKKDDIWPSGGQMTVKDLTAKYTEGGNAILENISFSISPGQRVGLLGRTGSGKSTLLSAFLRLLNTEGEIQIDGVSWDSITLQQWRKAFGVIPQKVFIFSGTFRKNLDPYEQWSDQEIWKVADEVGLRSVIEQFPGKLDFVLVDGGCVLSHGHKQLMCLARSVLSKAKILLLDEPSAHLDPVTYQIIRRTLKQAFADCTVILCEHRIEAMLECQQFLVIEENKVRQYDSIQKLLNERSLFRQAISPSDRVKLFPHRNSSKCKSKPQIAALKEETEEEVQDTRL

Consider `C[C@H](C1CCN(c2cc(C(=O)NS(=O)(=O)N(C)C)nc3c2c(C2CCC2)nn3-c2ccc(F)cc2)CC1)N1CCOCC1` (single isomer, unassigned) [Compound 479], for which, in assay [1], the “% Activation” value is on record as 524.1% and the concentration for a half-maximal effect (EC50) turned out to be 109 nM. Further, in assay [2], the “% Activation” value was found to be 305.7% and the EC50 was 197 nM.
As for `COCC1CCN(c2cc(C(=O)NS(=O)(=O)CCl)nc3c2c(C2CCC2)nn3-c2ccccc2)CC1` [AC07], in assay [1], the “% Activation” value is 466.9% and the EC50 was found to be 76.6 nM. For the same compound, in assay [2], the “% Activation” value was found to be 268.5% and the EC50 is 139 nM.
For `Cc1nn(-c2ccccc2)c2nc(C(=O)NS(=O)(=O)c3ccccc3)cc(-c3ccc(N4CCOCC4)cc3)c12` [Compound 2, N-(benzenesulfonyl)-3-methyl-4-[4-(morpholin-4-yl)phenyl]-1-phenyl-1H-pyrazolo[3,4-b]pyridine-6-carboxamide] the same measures were 431.5%, 1120 nM, 226.75% and 1870 nM.
For `Cc1nn(-c2ccccc2)c2nc(C(=O)NS(=O)(=O)C3CC3)cc(-c3ccc(N4CCOCC4)cc3)c12` [Compound 4, N-(cyclopropanesulfonyl)-3-methyl-4-[4-(morpholin-4-yl)phenyl]-1-phenyl-1H-pyrazolo[3,4-b]pyridine-6-carboxamide], the figures for the “% Activation” value in assay [1] and in assay [2] were 405.8% and 246.7%, respectively. Besides, the 50% effective concentration (EC50) stood at 298 nM in assay [1] and 838 nM in assay [2].
For `Cc1nn(-c2cccc(OC(F)(F)F)c2)c2nc(C(=O)NS(C)(=O)=O)cc(-c3ccc(N4CCOCC4)cc3)c12` [Compound 6, N-(methanesulfonyl)-3-methyl-4-[4-(morpholin-4-yl)phenyl]-1-[3-(trifluoromethoxy)phenyl]-1H-pyrazolo[3,4-b]pyridine-6-carboxamide] the same measures were 387.1%, 232.1%, 511 nM and 808 nM.
The corresponding values for `CC(C)c1nn(-c2ccccc2)c2nc(C(=O)NS(C)(=O)=O)cc(-c3ccc(N(C)C)cc3)c12` [Compound 7, 4-[4-(dimethylamino)phenyl]-N-(methanesulfonyl)-1-phenyl-3-(propan-2-yl)-1H-pyrazolo[3,4-b]pyridine-6-carboxamide] are 420.63%, 245%, 554 nM and 636 nM.
For `Cc1nn(-c2cccc(C(F)(F)F)c2)c2nc(C(=O)NS(C)(=O)=O)cc(-c3ccc(N4CCOCC4)cc3)c12` [Compound 8, N-(methanesulfonyl)-3-methyl-4-[4-(morpholin-4-yl)phenyl]-1-[3-(trifluoromethyl)phenyl]-1H-pyrazolo[3,4-b]pyridine-6-carboxamide] the same measures were 441.85%, 270.6%, 854 nM and 900 nM.
As for `CC(C)c1nn(C2CCCCC2)c2nc(C(=O)NS(C)(=O)=O)cc(-c3cnc(N(C)C)nc3)c12` [Compound 9, 1-cyclohexyl-4-[2-(dimethylamino)pyrimidin-5-yl]-N-(methanesulfonyl)-3-(propan-2-yl)-1H-pyrazolo[3,4-b]pyridine-6-carboxamide], in assay [1], the “% Activation” value is given as 335% and the EC50 is 505 nM. Moreover, in assay [2], the “% Activation” value came to 143.05% and the EC50 was found to be 786 nM.
The corresponding values for `CC(C)(C)c1nn(C2CCCC2)c2nc(C(=O)NS(C)(=O)=O)cc(-c3ccc(N4CCOCC4)nc3)c12` [Compound 12, 3-tert-butyl-1-cyclopentyl-N-(methanesulfonyl)-4-[6-(morpholin-4-yl)pyridin-3-yl]-1H-pyrazolo[3,4-b]pyridine-6-carboxamide] are 364.15%, 714 nM, 161.15% and 1070 nM.
On to `COc1ccc(-c2cc(C(=O)NS(C)(=O)=O)nc3c2c(C)nn3-c2ccccc2)cc1` [Compound 14, N-(methanesulfonyl)-4-(4-methoxyphenyl)-3-methyl-1-phenyl-1H-pyrazolo[3,4-b]pyridine-6-carboxamide], for which, in assay [1], the “% Activation” value came to 335.6% and the EC50 came out at 1370 nM. In assay [2], the “% Activation” value turned out to be 148.9% and the concentration giving a half-maximal response (EC50) worked out at 1430 nM.
Take `CCS(=O)(=O)NC(=O)c1cc(-c2ccc(OC)cc2)c2c(C)nn(-c3ccccc3)c2n1` [Compound 15, N-(ethanesulfonyl)-4-(4-methoxyphenyl)-3-methyl-1-phenyl-1H-pyrazolo[3,4-b]pyridine-6-carboxamide]: in assay [1], the “% Activation” value is on record as 346.15% and the concentration giving a half-maximal response (EC50) was found to be 852 nM. In assay [2], the “% Activation” value came to 151.65% and the EC50 stood at 1190 nM.
The corresponding values for `CC(C)c1nn(-c2cccc(N3CCCC3)c2)c2nc(C(=O)NS(C)(=O)=O)cc(-c3ccc(N4CCOCC4)cc3)c12` [Compound 16, N-(methanesulfonyl)-4-[4-(morpholin-4-yl)phenyl]-3-(propan-2-yl)-1-[3-(pyrrolidin-1-yl)phenyl]-1H-pyrazolo[3,4-b]pyridine-6-carboxamide] are 649.9%, 459 nM, 469.75% and 543 nM.
The corresponding values for `COc1ccc(-n2nc(C(C)C)c3c(-c4ccc(N(C)C)cc4)cc(C(=O)NS(C)(=O)=O)nc32)cn1` [Compound 17, 4-[4-(dimethylamino)phenyl]-N-(methanesulfonyl)-1-(6-methoxypyridin-3-yl)-3-(propan-2-yl)-1H-pyrazolo[3,4-b]pyridine-6-carboxamide] are 320%, 1120 nM, 140.75% and 1230 nM.
The corresponding values for `COc1ccc(-c2cc(C(=O)NS(C)(=O)=O)nc3c2c(C)nn3-c2ccc(C)c(Cl)c2)cc1` [Compound 18, 1-(3-chloro-4-methylphenyl)-N-(methanesulfonyl)-4-(4-methoxyphenyl)-3-methyl-1H-pyrazolo[3,4-b]pyridine-6-carboxamide] are 217.8%, 1110 nM, 64.675% and 2270 nM.
`COCCS(=O)(=O)NC(=O)c1cc(N2CCN(C(=O)OCC(C)C)CC2)c2c(C3CCC3)nn(-c3ccc(F)cc3)c2n1` [Compound 683, 2-methylpropyl 4-{3-cyclobutyl-1-(4-fluorophenyl)-6-[(2-methoxyethanesulfonyl)carbamoyl]-1H-pyrazolo[3,4-b]pyridin-4-yl}piperazine-1-carboxylate]: in assay [2], the “% Activation” value turned out to be 354.9% and the concentration giving a half-maximal response (EC50) is 253 nM.
As to `CNS(=O)(=O)NC(=O)c1cc(N2CCN(C(=O)OCC(C)C)CC2)c2c(C3CCC3)nn(-c3ccc(F)cc3)c2n1` [Compound 684, 2-methylpropyl 4-{3-cyclobutyl-1-(4-fluorophenyl)-6-[(methylsulfamoyl)carbamoyl]-1H-pyrazolo[3,4-b]pyridin-4-yl}piperazine-1-carboxylate], in assay [2], the “% Activation” value amounted to 356.9% and the concentration for a half-maximal effect (EC50) worked out at 115 nM.
The corresponding values for `CN1CCC2(CC1)CCN(c1cc(C(=O)NS(=O)(=O)N3CCOCC3)nc3c1c(C1CCC1)nn3-c1ccc(F)cc1)CC2` [Compound 685, 3-cyclobutyl-1-(4-fluorophenyl)-4-(9-methyl-3,9-diazaspiro[5.5]undecan-3-yl)-N-(morpholine-4-sulfonyl)-1H-pyrazolo[3,4-b]pyridine-6-carboxamide] are 144.3% and 770 nM.

What is called EC50 is the concentration giving half of the maximal effect.

Source of the values: patent publication US10259810B2, “N-sulfonylated pyrazolo[3,4-b]pyridin-6-carboxamides and method of use” (AbbVie S.à.r.l., priority 2015, dated 2019).
